{"source": "patent US20140107316A1", "about": "“DRUG DELIVERY CONJUGATES CONTAINING UNNATURAL AMINO ACIDS AND METHODS FOR USING” (priority 2012, published 2014)", "key": {"[1]": {"tested_on": "folate receptor-positive KB cells", "procedure": "Inhibition of Cellular DNA Synthesis. The compounds described herein were evaluated using an in vitro cytotoxicity assay that predicts the ability of the drug to inhibit the growth of folate receptor-positive KB cells. The compounds were comprised of folate linked to a respective chemotherapeutic drug, as prepared according to the protocols described herein. The KB cells were exposed for up to 7 h at 37° C. to the indicated concentrations of folate-drug conjugate in the absence or presence of at least a 100-fold excess of folic acid. The cells were then rinsed once with fresh culture medium and incubated in fresh culture medium for 72 hours at 37° C. Cell viability was assessed using a ^3H-thymidine incorporation assay.\n(§1) In vitro test against the various cancer cell lines. Cells are heavily seeded in 24-well Falcon plates and allowed to form nearly confluent monolayers overnight. Thirty minutes prior to the addition of the test compound, spent medium is aspirated from all wells and replaced with fresh folate-deficient RPMI medium (FFRPMI). A subset of wells are designated to receive media containing 100 μM folic acid. The cells in the designated wells are used to determine the targeting specificity. […] Following one rinse with 1 mL of fresh FFRPMI containing 10% heat-inactivated fetal calf serum, each well receives 1 mL of medium containing increasing concentrations of test compound (4 wells per sample) in the presence or absence of 100 μM free folic acid as indicated. Treated cells are pulsed for 2 h at 37° C., rinsed 4 times with 0.5 mL of media, and then chased in 1 mL of fresh medium up to 70 h. Spent medium is aspirated from all wells and replaced with fresh medium containing 5 μCi/mL ^3H-thymidine. Following a further 2 h 37° C. incubation, cells are washed 3 times with 0.5 mL of PBS and then treated with 0.5 mL of ice-cold 5% trichloroacetic acid per well. After 15 min, the trichloroacetic acid is aspirated and the cell material solubilized by the addition of 0.5 mL of 0.25 N sodium hydroxide for 15 min. A 450 μL aliquot of each solubilized sample is transferred to a scintillation vial containing 3 mL of Ecolume scintillation cocktail and then counted in a liquid scintillation counter. Final tabulated results are expressed as the percentage of ^3H-thymidine incorporation relative to untreated controls.\n(§2) Folate receptor expressing cells. […] EC1456 was evaluated from 0.1-100 nM."}, "HepG2": {"tested_on": "HepG2", "test": "In vitro test against cancer cell lines, HepG2", "assay_type": "cell-based, Human", "conditions": "HepG2, FR status −; evaluated from 0.1-100 nM", "procedure": "as §1, with “Following a further 2 h 37° C. incubation, cells are washed 3 times with 0.5 mL of PBS and then treated with 0.5 mL of ice-cold 5% trichloroacetic acid per well. After 15 min, the trichloroacetic acid is aspirated and the cell material solubilized by the addition of 0.5 mL of 0.25 N sodium hydroxide for 15 min.” left out\nas §2"}, "AN3CA": {"tested_on": "AN3CA", "test": "In vitro test against cancer cell lines, AN3CA", "assay_type": "cell-based, Human", "conditions": "FR status −, evaluated from 0.1-100 nM", "procedure": "as §1, with “Following a further 2 h 37° C. incubation, cells are washed 3 times with 0.5 mL of PBS and then treated with 0.5 mL of ice-cold 5% trichloroacetic acid per well. After 15 min, the trichloroacetic acid is aspirated and the cell material solubilized by the addition of 0.5 mL of 0.25 N sodium hydroxide for 15 min.” left out\nas §2"}, "KB tumors": {"tested_on": "KB tumors", "test": "KB tumor assay in nu/nu mice", "conditions": "for CR (%) / Cures (%) / PR (%) / Toxicity Deaths (%) / Toxicity Avg. Weight Loss: TIW", "procedure": "Inhibition of Tumor Growth in Mice. Four to seven week-old mice (Balb/c or nu/nu strains) were purchased from Harlan Sprague Dawley, Inc. (Indianapolis, Ind.). Normal rodent chow contains a high concentration of folic acid (6 mg/kg chow); accordingly, mice used were maintained on the folate-free diet (Harlan diet #TD00434) for 1 week before tumor implantation to achieve serum folate concentrations close to the range of normal human serum. For tumor cell inoculation, 1×10^6 M109 cells (Balb/c strain) or 1×10^6 KB cells (nu/nu strain) in 100 μL were injected in the subcutis of the dorsal medial area. Tumors were measured in two perpendicular directions every 2-3 days using a caliper, and their volumes were calculated as 0.5×L×W^2, where L=measurement of longest axis in mm and W=measurement of axis perpendicular to L in mm. […] Dosing solutions were prepared fresh each day in PBS and administered through the lateral tail vein of the mice.\nGeneral KB Tumor Assay. The anti-tumor activity of the compounds described herein, when administered intravenously (i.v.) to tumor-bearing animals, was evaluated in nu/nu mice bearing subcutaneous KB tumors. Approximately 8 days post tumor inoculation in the subcutis of the right axilla with 1×10^6 KB cells (average tumor volume at to=50-100 mm^3), in mice (5/group) were injected i.v. three times a week (TIW), for 3 weeks with […] of the drug delivery conjugate or with an equivalent dose volume of PBS (control), unless otherwise indicated. Tumor growth was measured using calipers at 2-day or 3-day intervals in each treatment group. Tumor volumes were calculated using the equation V=a×b^2/2, where “a” is the length of the tumor and “b” is the width expressed in millimeters.\nToxicity as Measured by Weight Loss. The percentage weight change of the mice was determined in mice (5 mice/group) on selected days post-tumor inoculation (PTI), and graphed.\nIn vivo activity against tumors."}}, "note": "Entries after “also recorded” stand apart in the source; their conditions may differ. Read-outs that look alike come from different tables or passages of the source. Marks after values point to notes of the source that are not given here.", "data": [{"smiles": "CCCC(=O)OCN(C(=O)[C@@H](NC(=O)[C@H]1CCCCN1C)[C@@H](C)CC)[C@H](C[C@@H](OC(C)=O)c1nc(C(=O)N[C@@H](Cc2ccc(O)cc2)C[C@H](C)C(=O)NNC(=O)OCCSSC[C@@H](NC(=O)[C@H](CCC(=O)NC[C@H](O)[C@@H](O)[C@H](O)[C@H](O)CO)NC(=O)[C@@H](CCC(=O)O)NC(=O)[C@H](CCC(=O)NC[C@H](O)[C@@H](O)[C@H](O)[C@H](O)CO)NC(=O)[C@@H](CCC(=O)O)NC(=O)[C@H](CCC(=O)NC[C@H](O)[C@@H](O)[C@H](O)[C@H](O)CO)NC(=O)CC[C@@H](NC(=O)c2ccc(NCc3cnc4nc(N)[nH]c(=O)c4n3)cc2)C(=O)O)C(=O)O)cs1)C(C)C", "note": "[EC1456]", "values": [{"measurement": "improvement in specificity compared to EC0531", "setting": "[1]", "value": 4, "unit": "fold"}, {"measurement": "Competable up to 100 nM", "setting": "[1]; KB", "value": "Yes"}, {"measurement": "In vitro specificity (fold)", "setting": "[1]; difference in IC50 between competed and non-competed group", "value": 944, "unit": "fold"}, {"measurement": "specificity for the folate receptor as determined by folic acid competition", "setting": "[1]; difference in IC50 between competed group and non-competed group", "value": "ca. 1000 fold"}, {"measurement": "IC50", "setting": "[1]; read-out: 50% competition, competed group (excess folic acid)", "value": 1420, "unit": "nM"}, {"measurement": "IC50", "setting": "[1]; read-out: EC1456 Activity (IC50), KB, FR status +++, evaluated from 0.1-100 nM", "value": 2.3, "unit": "nM"}, {"measurement": "IC50", "setting": "[1]; read-out: In vitro IC50", "value": 1.5, "unit": "nM"}, {"measurement": "EC1456 Activity (IC50)", "setting": "HepG2", "value": "Inactive"}, {"measurement": "EC1456 Activity (IC50)", "setting": "AN3CA", "value": "Inactive"}, {"measurement": "In vivo activity", "setting": "KB tumors", "value": "Complete"}, {"measurement": "CR (%)", "setting": "KB tumors; 0.5 μmol/kg, 3 weeks", "value": 0, "unit": "%"}, {"measurement": "Cures (%)", "setting": "KB tumors; 0.5 μmol/kg, 3 weeks", "value": 0, "unit": "%"}, {"measurement": "PR (%)", "setting": "KB tumors; 0.5 μmol/kg, 3 weeks", "value": 60, "unit": "%"}, {"measurement": "Toxicity Deaths (%)", "setting": "KB tumors; 0.5 μmol/kg, 3 weeks", "value": 0, "unit": "%"}, {"measurement": "Toxicity Avg. Weight Loss", "setting": "KB tumors; 0.5 μmol/kg, 3 weeks, untreated control group 2.4%", "value": "<5", "unit": "%*"}, {"measurement": "CR (%)", "setting": "KB tumors; 0.67 μmol/kg, 2 weeks", "value": 20, "unit": "%"}, {"measurement": "Cures (%)", "setting": "KB tumors; 0.67 μmol/kg, 2 weeks", "value": 0, "unit": "%"}, {"measurement": "PR (%)", "setting": "KB tumors; 0.67 μmol/kg, 2 weeks", "value": 60, "unit": "%"}, {"measurement": "Toxicity Avg. Weight Loss", "setting": "KB tumors; 0.67 μmol/kg, 2 weeks", "value": "<2", "unit": "%"}, {"measurement": "Toxicity Deaths (%)", "setting": "KB tumors; 0.67 μmol/kg, 2 weeks", "value": 0, "unit": "%"}, {"measurement": "specific activity mediated by the folate receptor", "setting": "KB tumors; 1 μmol/kg TIW co-dosed with excess EC0923 (50 or 100 μmol/kg)", "value": "competable with excess EC0923"}, {"measurement": "whole animal toxicity (animal body weight)", "setting": "KB tumors; 1 μmol/kg TIW, 2 wk", "value": "did not result in any observable gross toxicity; also recorded: does not show any evidence of whole animal toxicity"}, {"measurement": "CR (%)", "setting": "KB tumors; 1.0 μmol/kg, 2 weeks", "value": 0, "unit": "%"}, {"measurement": "Cures (%)", "setting": "KB tumors; 1.0 μmol/kg, 2 weeks", "value": 60, "unit": "%"}, {"measurement": "PR (%)", "setting": "KB tumors; 1.0 μmol/kg, 2 weeks", "value": 40, "unit": "%"}, {"measurement": "Toxicity Avg. Weight Loss", "setting": "KB tumors; 1.0 μmol/kg, 2 weeks", "value": "<1.5", "unit": "%"}, {"measurement": "Toxicity Deaths (%)", "setting": "KB tumors; 1.0 μmol/kg, 2 weeks", "value": 0, "unit": "%"}, {"measurement": "CR (%)", "setting": "KB tumors; 2.0 μmol/kg, 2 weeks", "value": 0, "unit": "%"}, {"measurement": "Cures (%)", "setting": "KB tumors; 2.0 μmol/kg, 2 weeks", "value": 100, "unit": "%"}, {"measurement": "PR (%)", "setting": "KB tumors; 2.0 μmol/kg, 2 weeks", "value": 0, "unit": "%"}, {"measurement": "Toxicity Avg. Weight Loss", "setting": "KB tumors; 2.0 μmol/kg, 2 weeks", "value": "<3", "unit": "%"}, {"measurement": "Toxicity Deaths (%)", "setting": "KB tumors; 2.0 μmol/kg, 2 weeks", "value": 0, "unit": "%"}, {"measurement": "complete response (test animals)", "setting": "KB tumors; intravenously 1 μmol/kg TIW, 2 wk", "value": "4/4"}, {"measurement": "toxicity in relation to anti-tumor effect in mice", "setting": "KB tumors; mouse, in vivo", "value": "anti-tumor responses without significant toxicity"}]}]}
